These results are taken from PMC3127123, “Effect of 2-Hydroxypropyl-β-cyclodextrin on Solubility of Sparingly Soluble Drug Derivatives of Anthranilic Acid” (International Journal of Molecular Sciences, 2011).

Series [1] can be described thus: Phase solubility study: drug solubility in buffer solutions by UV-vis spectrophotometry. It is filed as physicochemical. Conditions: buffer solution without cyclodextrin, thermodynamic from solid, no cyclodextrin, read-out: solubility (C) in water (buffer solution), CD. The procedure:
The calibration curves are included in these figures. The absorption spectra were recorded in the range of 190–350 nm and for the calculation of […] the change of absorption was measured at 340 nm (pH 7.0), 195 nm (pH 2.0) for MEF; 245 nm (pH 7.0), and 250 nm (pH 2.0) for NIF and 255 nm (pH 7.0), and 225 nm (pH 2.0) for FLU, respectively.
The UV-Vis spectrophotometer (Perkin–Elmer Life and Analytical Sciences, Shelton, USA) was used to determine the 2HP-β-CD influence on drug solubility. Maximum drug concentration was measured at different cyclodextrins concentrations, temperatures and pHs. Samples contained buffer solution with pH 7 or 2, 2HP-β-CD in different concentrations, i.e., 0, 1, 2, 4, 7 or 10 mmol·dm^−3 and drug in excess. Samples were thermostated and mixed for 20 hours and then left for 4 hours for separation. The uncertainties of the temperature measurements were judged to be 0.1 K. Absorbance of each sample was measured with the UV-vis spectrophotometer.
The stability constants were determined by the measurements of the concentration of the drug in the sample as a function of the cyclodextrin concentration. Such a method is usually called “Phase solubility study” [31]. In this method complex stability constants are calculated from the obtained solubility data using a spectophotometric method. As a reference sample, the buffer + 2HP-β-CD solutions were used. Two buffers were prepared (mol concentration) i.e., potassium dihydrogen phosphate (0.008), disodium hydrogen phosphate (0.008; buffer, pH = 7.0), potassium dihydrogen phosphate (0.05), hydrochloric acid (0.05, buffer, pH = 2.0). Samples were scanned with a scan step of 1 nm from 650 to 190 nm. Measurements at pH = 10 were not performed in all systems, because of the necessity of using too high drug concentrations and because of problems with separation of two phases.

For series [2] the following is noted: cited from earlier work.
Series [3] in a line: Thermodynamic parameters of complexation from temperature dependence of stability constant (van't Hoff). It is filed as physicochemical. Conditions: T = 298.15 K, pH = 7 (buffer solution). An excerpt:
Thermodynamic parameters of reactions i.e. the free energy change (ΔG), the enthalpy change (ΔH) and the entropy change (ΔS), can be obtained from the temperature dependence of stability constant.

Series [4] can be described thus: Phase solubility study: effect of 2HP-β-CD on drug solubility and cyclodextrin-drug complex stability/dissociation constants. As to conditions: for cyclodextrin-drug complex stability constant Ks: 1:1 complex, Higuchi-Connors; for Kd: Kd = 1/Ks, value is Kd multiplied by 10^3, read-out: dissociation constant Kd·10^3; for solubility enhance ratio (R): drug concentration at highest 2HP-β-CD concentration relative to no cyclodextrin; for stability constant log Ks: pH = 7, T = 298.15 K, our value, phase solubility. It is filed as physicochemical. How it is done:
Solubility enhance ratio, R, was calculated as a drug concentration at the highest cyclodextrin concentration with relation to drug concentration in the absence of cyclodextrin. […] The opposite effect is observed for NIF. […] In general, when the solubility of the drug is very low, the solubility enhance ratio, R is high. Substitution of hydroxyl groups surrounding the 2HP-β-CD rim by the hydroxypropyl group promotes the complex formation process for drug derivatives of anthranilic acid with polar carboxylic substituent. […] Measurements of cyclodextrin-drug complex stability constants Ks and dissociation constants Kd are very important since these values indicate changes in physicochemical properties of a compound upon inclusion. Linear dependence of drug concentration to cyclodextrin concentration, with slope ratio below one usually assumes 1:1 ratio of complex. The stability constant, Ks, for complexes with 1:1 ratio is represented by: (1) Ks=[CD]/[D]⋅[C] Where: [D] is pure drug concentration, [C] is pure cyclodextrin concentration, and [CD] is concentration of drug-cyclodextrin complexes in solution. Complex dissociation constant, Kd, is represented by: […] For such systems, stability constant can be obtained by the following equation, investigated previously by Higuchi and Connors, 1965 [25]: (3) Ks=K1:1=slope/c0⋅(1−slope) […] Maximum drug concentration was measured at different cyclodextrins concentrations, temperatures and pHs. […] Samples were thermostated and mixed for 20 hours and then left for 4 hours for separation. The uncertainties of the temperature measurements were judged to be 0.1 K. Absorbance of each sample was measured with the UV-vis spectrophotometer. The stability constants were determined by the measurements of the concentration of the drug in the sample as a function of the cyclodextrin concentration. Such a method is usually called “Phase solubility study” [31]. In this method complex stability constants are calculated from the obtained solubility data using a spectophotometric method. As a reference sample, the buffer + 2HP-β-CD solutions were used. Two buffers were prepared (mol concentration) i.e., potassium dihydrogen phosphate (0.008), disodium hydrogen phosphate (0.008; buffer, pH = 7.0), potassium dihydrogen phosphate (0.05), hydrochloric acid (0.05, buffer, pH = 2.0). Samples were scanned with a scan step of 1 nm from 650 to 190 nm. Measurements at pH = 10 were not performed in all systems, because of the necessity of using too high drug concentrations and because of problems with separation of two phases.

For series [5] the following is noted: T = 298.15 K, cited from earlier work.
Details of series [6]: method as in earlier work. As to conditions: aqueous ethanol; cited from earlier work.
The mark [7] stands for this setting: pH 2, aqueous buffer, pH 2, T = 298.15 K.
[8] abbreviates: pH 2, aqueous buffer, pH 2, T = 310.15 K.
[9] abbreviates: pH 7, aqueous buffer, pH 7, T = 298.15 K.
Setting [10] is: pH 7, aqueous buffer, pH 7, T = 310.15 K.
Setting [11] is: previous work, densimetry and 1H NMR measurements.

The term solubility denotes the dissolved amount per volume that the medium holds. As a reminder, the Kd is the free concentration of one partner at which half of the binding sites on the other are occupied at equilibrium, for simple one-to-one binding.

Molecules are shown by their SMILES. Values after ≈ are worked out from the molar mass of the structure shown. Where two headings read alike, the source gives them in different places.

Regarding `O=C(O)c1ccccc1Nc1cccc(C(F)(F)F)c1` [Flufenamic acid], the solubility at 20 h in series [1] (setting [7]) worked out at 6 µM (≈ 1.69 µg/mL); in series [1] (setting [8]), 15 µM (≈ 4.22 µg/mL); in series [1] (setting [9]), 228 µM (≈ 64.1 µg/mL); in series [1] (setting [10]), 298 µM (≈ 83.8 µg/mL). Further, the “stability constant log Ks” value in series [2] (phase-solubility diagrams, pH = 6.75, T = 298.15 K) is listed as 2.36; in series [4], 2.30. Moreover, in series [3], the “entropy change (ΔS) of complexation” value came out at 50.2 J·mol^−1·K^−1. Moreover, the “cyclodextrin-drug complex stability constant Ks” value came to 3055 M⁻¹ in series [4] (pH 2, T = 298.15 K); 1850 M⁻¹ in series [4] (pH 2, T = 310.15 K); 202 M⁻¹ in series [4] (pH 7, T = 298.15 K); 218 M⁻¹ in series [4] (pH 7, T = 310.15 K). Besides, the Kd in series [4] (pH 2, T = 298.15 K) was 0.33 mM; in series [4] (pH 2, T = 310.15 K), 0.54 mM; in series [4] (pH 7, T = 298.15 K), 4.95 mM; in series [4] (pH 7, T = 310.15 K), 4.59 mM. Further, the “solubility enhance ratio (R)” value in series [4] (pH 2, T = 298.15 K) came out at 31.0; in series [4] (pH 2, T = 310.15 K) it was 19.0; in series [4] (pH 7, T = 298.15 K), 2.9; in series [4] (pH 7, T = 310.15 K), 3.0. Also, in series [5], the solubility in water is given as 2.38 × 10^−2 mmol·dm^−3.
Turning to `Cc1cccc(Nc2ccccc2C(=O)O)c1C` [Mefenamic acid], the solubility at 20 h worked out at 1 µM (≈ 0.241 µg/mL) in series [1] (setting [7]), 1 µM (≈ 0.241 µg/mL) in series [1] (setting [8]), 155 µM (≈ 37.4 µg/mL) in series [1] (setting [9]) and 220 µM (≈ 53.1 µg/mL) in series [1] (setting [10]). Besides, the “entropy change (ΔS) of complexation” value in series [3] is −33.0 J·mol^−1·K^−1. Moreover, the “free energy change (ΔG) of complexation” value in series [3] was -14.7 kJ/mol. Also, the “cyclodextrin-drug complex stability constant Ks” value was 539 M⁻¹ in series [4] (pH 2, T = 298.15 K); 1627 M⁻¹ in series [4] (pH 2, T = 310.15 K); 383 M⁻¹ in series [4] (pH 7, T = 298.15 K); 562 M⁻¹ in series [4] (pH 7, T = 310.15 K). Also, the Kd in series [4] (pH 2, T = 298.15 K) came to 1.86 mM; in series [4] (pH 2, T = 310.15 K), 0.62 mM; in series [4] (pH 7, T = 298.15 K), 2.61 mM; in series [4] (pH 7, T = 310.15 K), 1.78 mM. The “solubility enhance ratio (R)” value in series [4] (pH 2, T = 298.15 K) turned out to be 6.4; in series [4] (pH 2, T = 310.15 K), 17.3; in series [4] (pH 7, T = 298.15 K), 4.6; in series [4] (pH 7, T = 310.15 K), 6.0. The solubility in water in series [5] (pH between 3 and 6) is reported as 0.87 × 10^−4 mmol·dm^−3.
On to `O=C(O)c1cccnc1Nc1cccc(C(F)(F)F)c1` [Niflumic acid], for which the solubility at 20 h turned out to be 698 µM (≈ 197 µg/mL) in series [1] (setting [7]), 925 µM (≈ 261 µg/mL) in series [1] (setting [8]), 5750 µM (≈ 1620 µg/mL) in series [1] (setting [9]) and 8170 µM (≈ 2310 µg/mL) in series [1] (setting [10]). Also, the “stability constant log Ks” value in series [2] (1H NMR, pH = 7.4, T = 298.15 K) is on record as 2.3; in series [2] (UV-vis, pH = 7.4, T = 298.15 K), 3.09; in series [2] (calorimetric measurements, pH = 7.4, T = 298.15 K) it was 2.2; in series [2] (densimetry, pH = 7.4, T = 298.15 K), 2.8; in series [2] (pH = 7, T = 298.15 K, cyclodextrin not named at the place), 2.72; in series [2] (pH = 12, T = 298.15 K, cyclodextrin not named at the place) it was 2.53. Also, the “stability constant log Ks” value in series [4] is 1.98. Besides, the “free energy change (ΔG) of complexation” value in series [2] (T = 298.15 K, pH = 7.4) was -12.3 kJ/mol; in series [3], -11.3 kJ/mol. The enthalpy of complexation in series [2] (setting [11]) was -20.1 kJ/mol. Besides, the entropy of complexation entry in series [2] (setting [11]) is “negative”. Moreover, the “enthalpy change (ΔH) of complexation” value in series [3] is -10.0 kJ/mol. The “entropy change (ΔS) of complexation” value in series [3] worked out at 4.3 J·mol^−1·K^−1. In addition, the “cyclodextrin-drug complex stability constant Ks” value in series [4] (pH 2, T = 298.15 K) came out at 26 M⁻¹; in series [4] (pH 2, T = 310.15 K), 33 M⁻¹; in series [4] (pH 7, T = 298.15 K), 96 M⁻¹; in series [4] (pH 7, T = 310.15 K), 82 M⁻¹. For the same compound, the Kd in series [4] (pH 2, T = 298.15 K) was determined as 38.9 mM; in series [4] (pH 2, T = 310.15 K), 29.2 mM; in series [4] (pH 7, T = 298.15 K), 10.4 mM; in series [4] (pH 7, T = 310.15 K), 12.2 mM. In addition, the “solubility enhance ratio (R)” value is 1.3 in series [4] (pH 2, T = 298.15 K); 1.3 in series [4] (pH 2, T = 310.15 K); 1.6 in series [4] (pH 7, T = 298.15 K); 1.5 in series [4] (pH 7, T = 310.15 K).
For the compound `Oc1cc(Cl)ccc1Oc1ccc(Cl)cc1Cl` [triclosan], the “solubility increase on complexation with 2HP-β-CD” value in series [6] is 70 fold.
